Measurements: article PMC5071874, “Universal stress protein Rv2624c alters abundance of arginine and enhances intracellular survival by ATP binding in mycobacteria” (Scientific Reports, 2016)

Target: Rv2624c (Mycobacterium tuberculosis, UniProt P9WFD5)
Sequence (P9WFD5 whole entry): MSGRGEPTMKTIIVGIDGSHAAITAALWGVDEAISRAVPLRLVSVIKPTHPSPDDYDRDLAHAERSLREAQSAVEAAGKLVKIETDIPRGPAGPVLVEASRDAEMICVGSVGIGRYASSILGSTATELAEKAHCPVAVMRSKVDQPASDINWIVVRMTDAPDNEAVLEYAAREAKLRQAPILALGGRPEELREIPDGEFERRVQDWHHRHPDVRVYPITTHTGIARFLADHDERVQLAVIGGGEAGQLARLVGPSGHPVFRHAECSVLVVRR

SMILES | HPLC of nucleotides extracted by boiling purified protein
Nc1ncnc2c1ncn2[C@@H]1O[C@H](COP(=O)(O)OP(=O)(O)OP(=O)(O)O)[C@@H](O)[C@H]1O [ATP] | purified Rv2624c proteins from E. coli bound tightly to ATP and ADP after extensive purification steps
Nc1ncnc2c1ncn2[C@@H]1O[C@H](COP(=O)(O)OP(=O)(O)O)[C@@H](O)[C@H]1O [ADP] | purified Rv2624c proteins from E. coli bound tightly to ATP and ADP after extensive purification steps
